Laboratory results as given in patent publication US20050256179A1, “Selective pharmacologic inhibition of protein trafficking and related methods of treating human diseases” (priority 2003, published 2005).

Experiments:
Type in all cases: cell-based
GS28 = GS28 expression by Western blotting; settings: for GS28 expression: 100 ng/ml
Protocol: The culture medium was removed by vacuuming (for attached cells) or by low speed centrifugation (for suspension cells) for 5-7 minutes at room temperature. The cells were wasedh twith PBS, spun at 1200 rpm and the cell pellets were kept on ice. 300 μl/2.0×10^7 cells of ice cold lysis buffer was added with freshly added protease inhibitors. Cell pellets were gently resuspended and incubated on ice for at least 30 min, vortexed a few times during incubation. Cell lysate was spun at 14,000 rpm for 2-5 min at 4° C. The supernatant was transferred to a new microfuge tube and the pellet was discarded. An aliquot of sample was mixed with an equal volume of 2× sample buffer (InVitrogen), and stored at −80° C. Protein concentration was determined by using “BCA protein assay reagent kit” from Pierce.
(§1) Protein samples (in sample buffer) were boiled for 1-3 minutes and put on ice. Same amount of protein were loaded on the NuPage gel (InVitrogen). After the electrophoresis was complete, proteins were transferred from the gel to a PVDF membrane using the electro-blotting apparatus from InVitrogen; the voltage was set to 25 for 2-3 hr. Block non-specific binding by incubating membrane with 5% milk (in PBS, 0.1% tween 20) for at least 30 min at room temperature or overnight at 4° C. The blocked membrane was incubated with primary antibody (See TABLE 2) diluted in 5% milk for 1 hour at room temperature. Optimal antibody dilution depends on the company, the amount of protein. Dilutions of 1:1000 were generally used for the primary antibodies from Santa Cruz. The membrane was washed with PBS, 0.1% tween 3-4 times 5 mins. The membrane was incubated for 30-60 minutes at room temperature with horseradish peroxidase (HRP) conjugated secondary antibody diluted in 5% milk. We usually used 1:4000 dilution for the secondary antibody from Santa Cruz. The membrane was washed 3-4 times with PBS, 0.1% tween, each time 15 minutes. The detection solutions A and B were mixed in a ratio 40:1 and Pipetted onto the membrane, and incubated for 5 min at RT. A sheet of Hyper film ECL was placed on the top of the membrane in the dark and exposed for 1 min, or adjust accordingly.
To further examine the putative protein trafficking effects of AVP 893, other proteins in this pathway were tested in vitro in B16 and other cell lines. The effect of AVP 893 on cellular proteins was corroborated in B16 cells and extended to include a time-course (FIG. 17). B16-F10 tumor cells were seeded in T75 flasks at 20% confluence and cultured overnight. AVP 893 (100 ng/ml) was added to several flasks and one flask of cells was harvested at several time points following addition of compound. Lysates were prepared, separated by electrophoresis, and probed with antibody as described above in the general Western blotting protocol. Drug effects on GS28 and nicastrin paralleled each other and were progressively stronger with longer drug incubations. […] Other cell lines were tested for their expression of GS28 and nicastrin and found to respond similarly to drug, although quantitative differences were evident. Tumor cell lines found to respond similarly to AVP 893 include CAK1, SF295, PC3, MOLT4, Neuro2a, and RBL (FIGS. 18, 19, and 20). For the experiment shown in FIG. 18, LOX, CAKI, and 3T3 cell lines were treated as described for FIG. 17. For the results shown in FIG. 19, SF295, PC3, MOLT-4, and Neuro2a cells were treated as described for FIG. 17. For the results shown in FIG. 20, LOX, 3T3, and RBL cell lines were treated with varying concentrations of AVP 893 as described for FIG. 17. The effects on LOX cells were less evident. […] Levels of calnexin, a resident ER protein used as a control, were unchanged in drug-treated cells.

Rab6 = Rab6 expression
Rab1a = Rab1a expression by Western blotting; settings: 3T3 cells
Protocol: as §1, with “accordingly. […]” for “accordingly.”

GS15 = GS15 expression in 3T3 cells; settings: beginning around 2 to 4 hrs of exposure
Description: (§2) Likewise, the non-resident golgi protein Rab6 appeared to be unaffected in some cell types, as illustrated in FIG. 31.

GM-130 = GM-130 expression; settings: data not shown
Description: as §2

GS28 mRNA = GS28 mRNA by RT-PCR in human PBL; settings: 3 to 16 hours following addition of drug
Protocol: Human buffy coats were purchased from the San Diego Blood Bank. Buffy Coat was purified of red blood cells using Histopaque-1077 following Sigma Diagnostic protocol. Lymphocytes (20 million) were then cultured in 75 cm2 flasks in cDMEM (+/−stimulus & AVP 893) for either 4 or 24 hrs. Cells were harvested and reconstituted in a Guanidine/Phenol solution essentially as described by Maniatis. The aqueous layer was removed and washed with Guanidine solution and finally 70% EtOH. RNA purity was checked by spectrophotometer. RT-PCR (36 cycles) was performed following the RT-PCR One-Step protocol (Qiagen). Similar results were obtained when testing mRNA samples obtained from other cell sources (not shown).

[1] = test system: viruses from families likely to utilize the golgi; experiment: In vitro testing of other viral families; settings: Table 4
Protocol: The effect of AVP 893 on the spread of viral infection was further investigated. AVP 893 (at 300 ng/ml) was applied 16 hr prior to virus inoculation. Time points shown in FIG. 45 represent the hours after virus inoculation. […] In addition to the immunocytochemistry work shown in FIG. 45, extensive in vitro plaque assays were performed on HSV-1 and -2, as well as other families of virus that use the golgi in their life cycle (see Table 2).
Representative viruses from families likely to utilize the golgi were tested. […] (data not shown).

O=C(Nc1ccc(-c2nc3cc(NC(=O)C4CCCCC4)ccc3[nH]2)cc1)C1CCCCC1 [AVP 893]
expression of GS28 and GS15 compared with monensin, Brefeldin A, rapamycin (GS28; 3T3 cells, 200 ng/ml, 18 hour): decreased the expression of GS28 and GS15 more markedly than the other three agents | IC50 for GS28 expression (GS28; 3T3 cells, overnight): 10 and 100 ng/ml | levels of GS28 (GS28; 3T3 fibroblast cell line): virtually eliminated | GS28 expression (GS28; B16 cells, two days of culture): complete loss of GS28 | GS28 or nicastrin expression (GS28; resistant line H-460, overnight): little effect | GS28 expression (GS28; stimulated BALB/c spleen cells, 20 hours): abrogated | Rab6 expression (Rab6; 3T3 and PMA/ionomycin-stimulated spleen cells, overnight): suppressed Rab6 expression | Rab6 staining (Rab6; immunocytochemistry, even after 18 hrs): not diminished nor significantly altered | Rab1a expression (Rab1a): mild response | GS15 staining (GS15): greatly diminished | GM-130 expression (GM-130): did not appear to be affected | level of GS28 mRNA (GS28 mRNA): did not affect the level of GS28 mRNA | spread of other viral families [1]: inhibited
